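How tested: cells in 96-well plates exposed to compound for 48 hours at five concentrations. The concentration for 50% growth inhibition is given as GI50. TGI denotes the concentration required for complete inhibition of growth.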
Assays:
Experiment in all cases: NCI anticancer screen, dose series, 48 h
786-0 renal = test system: 786-0 renal
A549 NSCLC = test system: A549 NSCLC
HCT-15 colon = test system: HCT-15 colon
KM12 colon = test system: KM12 colon
NCI-H23 lung = test system: NCI-H23 lung
OVCAR-3 ovarian = test system: OVCAR-3 ovarian
SW-620 colon = test system: SW-620 colon
TK-10 renal = test system: TK-10 renal
U251 CNS = test system: U251 CNS
PC-3 prostate = test system: PC-3 prostate

Structure (SMILES) | TGI (786-0 renal) | TGI (A549 NSCLC) | TGI (HCT-15 colon) | TGI (KM12 colon) | TGI (NCI-H23 lung) | TGI (OVCAR-3 ovarian) | TGI (SW-620 colon) | TGI (TK-10 renal) | TGI (U251 CNS) | GI50 (786-0 renal) | GI50 (A549 NSCLC) | GI50 (KM12 colon) | GI50 (NCI-H23 lung) | GI50 (OVCAR-3 ovarian) | GI50 (PC-3 prostate) | TGI (PC-3 prostate) | GI50 (SW-620 colon) | GI50 (TK-10 renal) | GI50 (U251 CNS) | GI50 (HCT-15 colon)
COc1cccc(SSc2cccc(OC)c2C(=O)O)c1C(=O)O | > 100 µM | > 100 µM | > 100 µM | > 100 µM | > 100 µM | > 100 µM | > 100 µM | > 100 µM | > 100 µM | – | – | – | – | – | – | – | – | – | – | –
COc1ccc(-c2c3c(nc4n[nH]c(-c5ccc(Cl)cc5)c24)-c2ccccc2C(=O)C3=O)cc1 | 4.59 µM | 3.54 µM | – | 3.16 µM | 4.74 µM | 4.33 µM | 3.03 µM | 3.32 µM | 2.81 µM | 2.01 µM | 1.83 µM | 1.62 µM | 1.64 µM | 1.28 µM | 1.22 µM | 3.71 µM | 1.6 µM | 1.8 µM | 1.46 µM | –
N#Cc1cccc(C=NC23CC4CC(CC(C4)C2)C3)c1 | > 100 µM | > 100 µM | > 100 µM | > 100 µM | > 100 µM | > 100 µM | > 100 µM | > 100 µM | > 100 µM | – | – | – | – | – | – | – | – | – | – | –
Cn1cc(C(=O)c2ccccc2)cc(C(=O)c2ccccc2)c1=O | > 100 µM | > 100 µM | > 100 µM | > 100 µM | > 100 µM | > 100 µM | > 100 µM | > 100 µM | > 100 µM | – | – | – | – | – | – | – | – | – | – | –
CC1(C)Cc2c(Br)c(Br)c(Br)c(OCC(O)CN3CCN(c4ccccn4)CC3)c2O1 (centres undefined) | 26.1 µM | – | 26.5 µM | 24.5 µM | 32 µM | 23.4 µM | 29.2 µM | 30.8 µM | 23.3 µM | 12.5 µM | – | 7.78 µM | 13.4 µM | 9.54 µM | 5.58 µM | 22.5 µM | 15.2 µM | 14.3 µM | 11.3 µM | 10.9 µM
Cc1ccc(NC(=O)CCc2n[nH]c(=S)o2)cc1 | > 100 µM | > 100 µM | > 100 µM | > 100 µM | > 100 µM | > 100 µM | > 100 µM | > 100 µM | > 100 µM | – | – | – | – | – | – | – | – | – | – | –
COCCOCCOCCOc1cccc2c1C(=O)c1cccc(OCCOCCOCCOC)c1C2=O | > 100 µM | > 100 µM | > 100 µM | – | > 100 µM | > 100 µM | > 100 µM | > 100 µM | > 100 µM | – | – | – | – | – | – | – | – | – | – | –
O=[N+]([O-])c1cc([N+](=O)[O-])c(Cl)cc1Cl | 3.21 µM | 3.27 µM | 3.73 µM | 3.05 µM | 3 µM | 2.73 µM | – | 3.16 µM | 0.476 µM | 1.71 µM | 1.64 µM | 1.64 µM | 1.4 µM | 1.42 µM | 1.35 µM | 2.88 µM | – | 1.65 µM | 0.211 µM | 1.35 µM
CCOc1ccc2c(c1)c(CC(=O)O)cn2C | > 100 µM | > 100 µM | > 100 µM | > 100 µM | > 100 µM | > 100 µM | – | > 100 µM | > 100 µM | – | – | – | – | – | – | > 100 µM | – | – | – | –
CC(=O)c1ccc(NC(=O)COC(=O)c2cccc3c(=O)c4ccccc4[nH]c23)cc1 | > 100 µM | > 100 µM | – | > 100 µM | > 100 µM | 69.4 µM | > 100 µM | 60.6 µM | 86.5 µM | – | – | – | – | – | – | – | – | – | – | –
COc1ccc(NC(=O)CC(=O)n2nc(C)c(N=Nc3ccccc3C(=O)O)c2C)cc1 | > 100 µM | > 100 µM | > 100 µM | > 100 µM | > 100 µM | > 100 µM | > 100 µM | > 100 µM | > 100 µM | – | – | – | – | – | – | – | – | – | – | –
Cc1ccc(S(=O)(=O)N/N=C/C(C)C)cc1 | > 100 µM | > 100 µM | > 100 µM | > 100 µM | > 100 µM | > 100 µM | > 100 µM | > 100 µM | > 100 µM | – | – | – | – | – | – | – | – | – | – | –
C=C(C(=C)P(=S)(C(C)C)C(C)C)P(=S)(C(C)C)C(C)C | > 100 µM | > 100 µM | > 100 µM | > 100 µM | > 100 µM | > 100 µM | > 100 µM | > 100 µM | > 100 µM | – | – | – | – | – | – | – | – | – | – | –
CCCCCCCCCCCc1c(O)c(=O)c2c(oc3c(=O)c(CCCCCCCCCCC)c(O)c(=O)c3n2-c2ccc(N(C)C)cc2)c1=O | 33.9 µM | 52.4 µM | 35.6 µM | 26.8 µM | 47.1 µM | 38.6 µM | 68.6 µM | 33 µM | 44.1 µM | – | – | – | – | – | – | – | – | – | – | –
OCCN(CCO)c1cccc(N(CCO)CCO)n1 | > 100 µM | > 100 µM | > 100 µM | > 100 µM | – | > 100 µM | > 100 µM | > 100 µM | > 100 µM | – | – | – | – | – | – | – | – | – | – | –
CC([O-])=C1C(=O)c2ccccc2C1=O.CC([O-])=C1C(=O)c2ccccc2C1=O.CC[O-].CC[O-].[Ti+4] | > 100 µM | – | > 100 µM | > 100 µM | > 100 µM | > 100 µM | > 100 µM | – | > 100 µM | > 100 µM | – | > 100 µM | > 100 µM | > 100 µM | – | – | > 100 µM | – | > 100 µM | > 100 µM
COC(=O)Cc1cc(=O)[nH]c2c1C(=O)CCC2 | > 100 µM | > 100 µM | > 100 µM | > 100 µM | > 100 µM | > 100 µM | > 100 µM | > 100 µM | > 100 µM | – | – | – | – | – | – | – | – | – | – | –
O=c1c2cc3c(cc2c2cccc4c2n1CCC4)OCO3 | > 100 µM | > 100 µM | > 100 µM | > 100 µM | > 100 µM | > 100 µM | > 100 µM | > 100 µM | 73.5 µM | – | – | – | – | – | – | – | – | – | – | –
COc1cccc(N2C(=O)C3C4C=C5c6ccccc6N(c6ccccc6)C5(C3C2=O)[C@H]2C(=O)N(c3cccc(OC)c3)C(=O)[C@@H]42)c1 (some centres undefined) | > 100 µM | > 100 µM | > 100 µM | > 100 µM | > 100 µM | > 100 µM | > 100 µM | > 100 µM | > 100 µM | – | – | – | – | – | – | – | – | – | – | –
COc1ccc(C(=O)C#Cc2c[nH]c(=O)[nH]c2=O)cc1 | 25 µM | > 59.6 µM | 20.9 µM | > 52.6 µM | 32.8 µM | 21.6 µM | 26.7 µM | 23.3 µM | 22.7 µM | – | – | – | – | – | – | – | – | – | – | –

From PubChem BioAssay (NCI)
